# Legend:
# human LTA4 hydrolase = biological target: T1, human LTA4 hydrolase (Homo sapiens, UniProt P09960); experiment: LTA4H Enzyme assay (peptidase, Arg-AMC cleavage); type: biochemical; settings: LTA4H enzyme 1 nM, Arg-AMC substrate 50 μM, room temperature 1 h, fluorescence 380/460 nm
# T1 sequence (P09960 1-611): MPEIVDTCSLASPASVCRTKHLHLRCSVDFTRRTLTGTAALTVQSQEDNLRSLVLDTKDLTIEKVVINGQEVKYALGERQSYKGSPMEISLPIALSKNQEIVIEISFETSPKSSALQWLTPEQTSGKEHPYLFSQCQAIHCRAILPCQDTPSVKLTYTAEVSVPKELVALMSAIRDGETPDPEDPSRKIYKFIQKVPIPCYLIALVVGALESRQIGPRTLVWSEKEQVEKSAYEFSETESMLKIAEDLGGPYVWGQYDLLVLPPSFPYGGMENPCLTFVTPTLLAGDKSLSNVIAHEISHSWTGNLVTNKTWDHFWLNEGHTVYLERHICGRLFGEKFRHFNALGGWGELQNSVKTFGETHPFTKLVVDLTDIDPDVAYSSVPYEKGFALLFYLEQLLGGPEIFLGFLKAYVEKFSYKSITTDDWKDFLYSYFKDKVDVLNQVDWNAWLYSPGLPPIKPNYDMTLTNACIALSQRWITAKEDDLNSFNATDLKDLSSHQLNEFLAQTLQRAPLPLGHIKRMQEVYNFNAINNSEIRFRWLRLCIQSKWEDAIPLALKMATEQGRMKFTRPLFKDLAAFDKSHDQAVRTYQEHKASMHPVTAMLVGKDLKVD
# How it was run: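 Human LTA4H (1 nM final) incubated with compound and Arg-AMC (50 μM final) in 50 mM Tris-HCl pH 7.5, 100 mM KCl, 0.5% BSA, 1 h at room temperature. Product read as AMC fluorescence (ex 380/em 460 nm); IC50 reported.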
# [1] = system: LTB4 synthesis in human whole blood; experiment: human whole blood (HWB) assay, inhibition of LTB4 production; type: cell-based; settings: heparinized human whole blood, calcimycin 20 μM stimulation, plasma LTB4
# How it was run: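 Plasma LTB4, quantified by HTRF immunoassay, is the read-out after calcimycin challenge (20 μM final, 30 min, 37 °C) of heparinized whole blood that had been pretreated with compound for 15 min at 37 °C; values given as IC50.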
Compound,IC50 (human LTA4 hydrolase) [µM],IC50 [1] [µM]
"c1cc(-c2ccc(Oc3ccc4ncc(CN5CCOCC5)cc4c3)cc2)[nH]n1 [Example 249, 3-Morpholin-4-ylmethyl-6-[4-(2H-pyrazol-3-yl)-phenoxy]-quinoline]",0.00037,0.2
"c1cc(-c2ccc(Oc3ccc4nc(CN5CCOCC5)cn4c3)cc2)[nH]n1 [Example 250, 2-Morpholin-4-ylmethyl-6-[4-(2H-pyrazol-3-yl)-phenoxy]-imidazo[1,2-a]pyridine]",0.00057,0.21
"O=C1CC[C@@H](Cn2cc3cc(Oc4ccc(-c5ccn[nH]5)cc4)ccc3n2)N1 [Example 251, (S)-5-{5-[4-(2H-Pyrazol-3-yl)-phenoxy]-indazol-2-ylmethyl}-pyrrolidin-2-one]",0.00087,0.22
"c1cc(-c2ccc(Cc3ccc4nc(CN5CCOCC5)cn4c3)cc2)[nH]n1 [Example 252, 2-Morpholin-4-ylmethyl-6-[4-(2H-pyrazol-3-yl)-benzyl]-imidazo[1,2-a]pyridine]",0.00093,0.25
"O=C1CC[C@@H](Cn2ncc3cc(Oc4ccc(-c5ccn[nH]5)cc4)ccc32)N1 [Example 253, (S)-5-{5-[4-(2H-Pyrazol-3-yl)-phenoxy]-indazol-1-ylmethyl}-pyrrolidin-2-one]",0.0014,0.3
"c1cc(-c2ccc(Oc3ccc4nc(CN5CCOCC5)ccc4c3)cc2)[nH]n1 [Example 254, 2-Morpholin-4-ylmethyl-6-[4-(2H-pyrazol-3-yl)-phenoxy]-quinoline]",0.0007,0.33
"O=C1OCCN1Cc1cn2cc(Oc3ccc(-c4ccn[nH]4)cc3)ccc2n1 [Example 255, 3-{6-[4-(2H-Pyrazol-3-yl)-phenoxy]-imidazo[1,2-a]pyridin-2-ylmethyl}-oxazolidin-2-one]",0.0017,0.36
"Cc1nc2ccc(Oc3ccc(-c4ccn[nH]4)cc3)cc2cc1CN1CCCC1 [Example 256, 2-Methyl-6-[4-(2H-pyrazol-3-yl)-phenoxy]-3-pyrrolidin-1-ylmethyl-quinoline]",0.0016,0.48
"c1cc(-c2ccc(Oc3ccn4cc(CN5CCOCC5)nc4c3)cc2)[nH]n1 [Example 257, 2-Morpholin-4-ylmethyl-7-[4-(2H-pyrazol-3-yl)-phenoxy]-imidazo[1,2-a]pyridine]",0.0025,0.65
"O=C(c1cn2ccc(Oc3ccc(-c4ccn[nH]4)cc3)cc2n1)N1CCOCC1 [Example 258, Morpholin-4-yl-{7-[4-(2H-pyrazol-3-yl)-phenoxy]-imidazo[1,2-a]pyridin-2-yl}-methanone]",0.01,2
"O=C(O)C1CCN(Cc2cn3cc(Oc4ccc(-c5ccn[nH]5)cc4)ccc3n2)CC1 [Example 259, 1-{6-[4-(2H-Pyrazol-3-yl)-phenoxy]-imidazo[1,2-a]pyridin-2-ylmethyl}-piperidine-4-carboxylic acid]",0.00012,2.1
"O=C1CC[C@@H](OCc2cn3cc(Oc4ccc(-c5ccn[nH]5)cc4)ccc3n2)CN1 [Example 260, (R)-5-{6-[4-(2H-Pyrazol-3-yl)-phenoxy]-imidazo[1,2-a]pyridin-2-ylmethoxy}-piperidin-2-one]",0.0053,2.2
